Data taken from patent publication US20170281779A1, “METHOD OF TREATING PATIENTS NON-RESPONSIVE TO PALONOSETRON” (Heron Therapeutics, Inc., priority 2013, published 2017).

Legend:
[1] = system: chemotherapy-induced nausea and vomiting (CINV); test: Clinical study of complete response (absence of emetic episodes) in chemotherapy patients; Cycle 1 palonosetron, Cycle 2 granisetron semi-solid delivery vehicle; type: in vivo, human; conditions: Cycle 1, palonosetron 0.25 mg intravenous
Experimental: As described in Example 2, the patients in the study were undergoing either a moderately emetogenic chemotherapy regimen or a highly emetogenic chemotherapy regimen. In a first cycle of the study, the patients were treated with (i) 5 mg of granisetron in a semi-solid drug delivery vehicle, administered subcutaneously; (ii) 10 mg of granisetron in a semi-solid drug delivery vehicle, administered subcutaneously; or (iii) palonosetron, 0.25 mg administered intravenously. Patients who received palonosetron in Cycle 1 and remained on study were re-randomized for treatment with 5 mg or 10 mg of granisetron, administered as comprised within a semi-solid drug delivery vehicle via subcutaneous injection of 250 mg vehicle or 500 mg vehicle.
In Cycle 1 of the study, 1395 patients receiving single doses of a moderately emetogenic chemotherapy (MEC) regimen or a highly emetogenic chemotherapy (HEC) regimen were randomized for treatment with one of three regimens: a semi-solid drug delivery vehicle comprising granisetron, administered subcutaneously to provide (i) 5 mg granisetron or (ii) 10 mg granisetron (via subcutaneous injection of 250 mg or 500 mg vehicle, respectively) or (iii) palonosetron, 0.25 mg intravenous. The palonosetron dose administered was the recommended dose of palonosetron (ALOXI®) for treatment of chemotherapy-induced nausea and vomiting in adults. Palonosetron, when administered intravenously at the above-dose, is indicated in adults for the prevention of both acute and delayed vomiting associated with initial and repeated courses of moderately emetogenic chemotherapy, and acute nausea and vomiting associated with initial and repeat courses of highly emetogenic chemotherapy.
Patients who received palonosetron in Cycle 1 and remained in the study were re-randomized for treatment in Cycle 2 with 5 mg or 10 mg granisetron administered subcutaneously as 250 mg or 500 mg, respectively, of the semi-solid drug delivery vehicle. […]

5-HT3 receptors = molecular target: T1, 5-HT3 receptors (Homo sapiens, UniProt P46098); conditions: compared to first generation 5-HT3 receptor antagonists dolasetron, granisetron and ondansetron; cited from earlier work
T1 sequence (P46098 24-478): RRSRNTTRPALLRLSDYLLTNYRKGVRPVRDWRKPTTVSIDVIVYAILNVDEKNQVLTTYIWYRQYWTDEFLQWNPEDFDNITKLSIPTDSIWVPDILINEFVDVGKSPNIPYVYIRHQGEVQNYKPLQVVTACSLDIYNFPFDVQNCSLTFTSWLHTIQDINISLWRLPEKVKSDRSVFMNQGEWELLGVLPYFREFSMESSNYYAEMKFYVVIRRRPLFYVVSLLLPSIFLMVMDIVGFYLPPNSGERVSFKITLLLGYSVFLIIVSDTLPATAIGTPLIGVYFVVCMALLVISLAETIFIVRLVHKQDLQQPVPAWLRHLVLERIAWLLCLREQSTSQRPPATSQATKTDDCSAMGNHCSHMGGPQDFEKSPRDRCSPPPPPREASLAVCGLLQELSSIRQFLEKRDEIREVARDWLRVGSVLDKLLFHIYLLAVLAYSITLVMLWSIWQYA

[2] = cited from earlier work
[3] = compared to first generation 5-HT3 receptor antagonists dolasetron, granisetron and ondansetron

O=C1c2cccc3c2[C@H](CCC3)CN1[C@@H]1CN2CCC1CC2 [palonosetron]
overall (0-120 hour) failures ([1]; HEC patients (94/238)): 39.5% | overall (0-120 hour) failures ([1]; MEC patients (100/208)): 48.1% | overall (0-120 hour) failures ([1]; all 446 patients (MEC + HEC)): 43.5% | binding affinity to the 5-HT3 receptors (5-HT3 receptors): higher binding affinity | safety profile ([2]; as reported in the literature (Eisenberg et al. 2004)): excellent safety profile | half-life [2, 3]: significantly longer half-life | potency [2, 3]: higher potency
